pIC50, pKi: −log10 of the molar value.
Tests used:
P2Y purinoceptor 6 [1] = target: P2Y purinoceptor 6 (Mus musculus, UniProt Q9ERK9); test: Antagonist activity at mouse P2Y6R expressed in human 1321N1 cells assessed as inhibition of […] calcium mobilization by FLIPR assay; format: cell-based
HEK293 = test: Cytotoxicity against HEK293 cells assessed as reduction in cell viability at 100 uM measured after 24 hrs by MTT assay relative to control; format: toxicity, cell-based; conditions: human, hek293, 24 h
[2] = target: P2Y purinoceptor 1 (Meleagris gallopavo) (UniProt P49652); test: Antagonist activity at Meleagris P2Y1R expressed in human 1321N1 cells assessed as inhibition of […] calcium mobilization at 100 uM by FLIPR assay relative to control; format: cell-based; parameters: scale not given: the % may be the effect or the level left
[3] = target: P2Y purinoceptor 2 (Homo sapiens) (UniProt P41231); test: Antagonist activity at human P2Y2R expressed in human 1321N1 cells assessed as inhibition of […] calcium mobilization at 100 uM by FLIPR assay relative to control; format: cell-based; parameters: scale not given: the % may be the effect or the level left
[4] = target: P2Y purinoceptor 4 (Homo sapiens) (UniProt P51582); test: Antagonist activity at human P2Y4R expressed in human 1321N1 cells assessed as inhibition of […] calcium mobilization at 100 uM by FLIPR assay relative to control; format: cell-based; parameters: scale not given: the % may be the effect or the level left
[5] = target: P2Y purinoceptor 6 (Mus musculus) (UniProt Q9ERK9); test: Antagonist activity at mouse P2Y6R expressed in human 1321N1 cells assessed as inhibition of […] calcium mobilization at 20 uM by FLIPR assay relative to control; format: cell-based; parameters: scale not given: the % may be the effect or the level left
P2Y purinoceptor 6 [6] = target: T1, P2Y purinoceptor 6 (Homo sapiens, UniProt Q15077); test: Antagonist activity at human P2Y6R expressed in human 1321N1 cells assessed as inhibition of […] calcium mobilization by FLIPR assay; format: cell-based
P2Y purinoceptor 6 [7] = target: T1, P2Y purinoceptor 6; test: Antagonist activity at human P2Y6R expressed in human 1321N1 cells assessed as inhibition of […] calcium mobilization at 100 uM by FLIPR assay relative to control; format: cell-based; parameters: scale not given: the % may be the effect or the level left
[8] = target: Sigma intracellular receptor 2 (Homo sapiens, UniProt Q5BJF2); test: Binding affinity to sigma 2 receptor (unknown origin)
D(3) dopamine receptor = D(3) dopamine receptor (Homo sapiens, UniProt P35462); test: Binding affinity to dopamine 3 receptor (unknown origin)
D(1B) dopamine receptor = D(1B) dopamine receptor (Homo sapiens, UniProt P21918); test: Binding affinity to dopamine 5 receptor (unknown origin)
[9] = target: 5-hydroxytryptamine receptor 2A (Homo sapiens, UniProt P28223); test: Binding affinity to 5-HT2A (unknown origin)
[10] = target: T2, Alpha-2C adrenergic receptor (Homo sapiens, UniProt P18825); test: Binding affinity to adrenergic alpha 2c receptor (unknown origin)
T2 sequence (P18825 whole entry): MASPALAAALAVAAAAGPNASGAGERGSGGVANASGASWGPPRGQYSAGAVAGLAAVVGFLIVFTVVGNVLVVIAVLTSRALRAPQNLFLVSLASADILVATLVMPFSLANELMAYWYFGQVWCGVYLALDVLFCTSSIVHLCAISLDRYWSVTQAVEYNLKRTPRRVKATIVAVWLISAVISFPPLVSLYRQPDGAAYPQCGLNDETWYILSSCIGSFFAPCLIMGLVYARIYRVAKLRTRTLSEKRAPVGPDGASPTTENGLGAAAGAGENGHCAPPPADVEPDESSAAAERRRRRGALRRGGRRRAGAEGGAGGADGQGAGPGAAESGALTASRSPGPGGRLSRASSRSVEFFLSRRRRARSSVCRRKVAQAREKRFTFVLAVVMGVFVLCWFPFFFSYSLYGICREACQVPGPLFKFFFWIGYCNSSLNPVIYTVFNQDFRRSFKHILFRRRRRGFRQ

Histamine H1 receptor = Histamine H1 receptor (Homo sapiens, UniProt P35367); test: Binding affinity to histamine H1 receptor (unknown origin)
[11] = target: Beta-3 adrenergic receptor (Homo sapiens, UniProt P13945); test: Binding affinity to adrenergic beta 3 (unknown origin)
[12] = target: Sigma non-opioid intracellular receptor 1 (Homo sapiens, UniProt Q99720); test: Binding affinity to sigma 1 receptor (unknown origin)
Sigma non-opioid intracellular receptor 1, sequence (Q99720 whole entry): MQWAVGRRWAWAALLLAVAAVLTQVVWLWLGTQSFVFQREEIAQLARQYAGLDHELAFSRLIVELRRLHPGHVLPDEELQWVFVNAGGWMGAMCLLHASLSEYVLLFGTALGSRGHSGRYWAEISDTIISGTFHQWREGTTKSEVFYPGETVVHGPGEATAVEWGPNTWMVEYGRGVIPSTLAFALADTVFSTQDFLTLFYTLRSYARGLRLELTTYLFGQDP

P2Y purinoceptor 4 (Homo sapiens), sequence (P51582 whole entry): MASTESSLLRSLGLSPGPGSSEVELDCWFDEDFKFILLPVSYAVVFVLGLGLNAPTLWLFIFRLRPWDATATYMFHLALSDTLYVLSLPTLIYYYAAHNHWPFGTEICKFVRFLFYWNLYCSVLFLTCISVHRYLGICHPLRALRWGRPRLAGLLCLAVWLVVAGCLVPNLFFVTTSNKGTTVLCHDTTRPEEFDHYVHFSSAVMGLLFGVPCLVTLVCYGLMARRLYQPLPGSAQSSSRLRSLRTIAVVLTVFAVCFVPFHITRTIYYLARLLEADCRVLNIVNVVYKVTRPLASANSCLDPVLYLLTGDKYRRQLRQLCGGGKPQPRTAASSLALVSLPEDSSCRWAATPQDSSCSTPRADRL
T1 sequence (Q15077 whole entry): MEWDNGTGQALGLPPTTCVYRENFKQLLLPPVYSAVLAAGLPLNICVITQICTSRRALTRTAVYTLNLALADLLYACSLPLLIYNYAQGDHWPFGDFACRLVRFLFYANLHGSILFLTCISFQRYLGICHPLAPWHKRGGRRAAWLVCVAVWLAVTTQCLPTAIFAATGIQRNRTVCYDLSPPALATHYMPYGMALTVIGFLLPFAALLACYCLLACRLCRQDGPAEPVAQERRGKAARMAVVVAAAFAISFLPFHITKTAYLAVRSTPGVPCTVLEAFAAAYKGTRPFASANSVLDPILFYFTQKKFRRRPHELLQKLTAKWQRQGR
P2Y purinoceptor 6 (Mus musculus, UniProt Q9ERK9), sequence (Q9ERK9 whole entry): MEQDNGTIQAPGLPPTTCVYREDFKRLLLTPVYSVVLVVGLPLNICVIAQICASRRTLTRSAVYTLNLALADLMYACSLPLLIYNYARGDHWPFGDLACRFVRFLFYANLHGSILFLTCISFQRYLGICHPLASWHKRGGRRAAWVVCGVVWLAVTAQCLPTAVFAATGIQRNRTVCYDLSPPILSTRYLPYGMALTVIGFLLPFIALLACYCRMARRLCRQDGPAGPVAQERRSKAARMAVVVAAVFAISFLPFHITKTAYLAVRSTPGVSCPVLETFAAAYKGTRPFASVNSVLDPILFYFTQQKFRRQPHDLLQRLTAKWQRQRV
P2Y purinoceptor 2 (Homo sapiens), sequence (P41231 whole entry): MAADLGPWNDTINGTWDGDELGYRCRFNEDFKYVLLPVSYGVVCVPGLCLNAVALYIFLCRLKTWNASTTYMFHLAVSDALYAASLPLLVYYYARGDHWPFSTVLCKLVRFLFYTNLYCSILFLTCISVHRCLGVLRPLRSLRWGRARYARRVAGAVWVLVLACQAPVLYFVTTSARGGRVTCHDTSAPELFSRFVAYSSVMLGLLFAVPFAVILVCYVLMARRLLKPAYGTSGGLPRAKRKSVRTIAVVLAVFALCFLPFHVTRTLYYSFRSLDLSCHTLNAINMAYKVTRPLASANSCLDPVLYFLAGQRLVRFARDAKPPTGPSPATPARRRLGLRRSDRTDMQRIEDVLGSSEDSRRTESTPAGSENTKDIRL
P2Y purinoceptor 1 (Meleagris gallopavo), sequence (P49652 whole entry): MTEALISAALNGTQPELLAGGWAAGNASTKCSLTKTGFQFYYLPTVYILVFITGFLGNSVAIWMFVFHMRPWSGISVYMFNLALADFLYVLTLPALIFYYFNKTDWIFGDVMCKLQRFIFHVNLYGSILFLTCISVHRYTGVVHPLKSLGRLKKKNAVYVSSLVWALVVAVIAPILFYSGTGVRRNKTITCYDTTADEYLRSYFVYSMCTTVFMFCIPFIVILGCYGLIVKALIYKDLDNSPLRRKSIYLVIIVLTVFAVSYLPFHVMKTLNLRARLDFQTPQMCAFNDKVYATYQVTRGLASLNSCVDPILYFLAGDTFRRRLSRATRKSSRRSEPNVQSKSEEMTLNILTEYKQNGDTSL
D(1B) dopamine receptor, sequence (P21918 whole entry): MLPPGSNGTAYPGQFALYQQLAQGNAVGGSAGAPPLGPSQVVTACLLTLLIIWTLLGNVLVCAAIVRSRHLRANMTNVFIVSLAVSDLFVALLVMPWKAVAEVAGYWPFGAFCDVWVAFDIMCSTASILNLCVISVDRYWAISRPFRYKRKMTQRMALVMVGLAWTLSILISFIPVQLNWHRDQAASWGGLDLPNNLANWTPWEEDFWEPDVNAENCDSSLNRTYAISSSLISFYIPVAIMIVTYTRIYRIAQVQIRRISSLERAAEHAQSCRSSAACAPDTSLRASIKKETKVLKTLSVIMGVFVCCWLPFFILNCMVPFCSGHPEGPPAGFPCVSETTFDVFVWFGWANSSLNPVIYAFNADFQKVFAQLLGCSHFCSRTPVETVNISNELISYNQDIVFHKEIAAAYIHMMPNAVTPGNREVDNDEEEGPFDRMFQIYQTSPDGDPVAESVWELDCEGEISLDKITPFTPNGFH
Beta-3 adrenergic receptor, sequence (P13945 whole entry): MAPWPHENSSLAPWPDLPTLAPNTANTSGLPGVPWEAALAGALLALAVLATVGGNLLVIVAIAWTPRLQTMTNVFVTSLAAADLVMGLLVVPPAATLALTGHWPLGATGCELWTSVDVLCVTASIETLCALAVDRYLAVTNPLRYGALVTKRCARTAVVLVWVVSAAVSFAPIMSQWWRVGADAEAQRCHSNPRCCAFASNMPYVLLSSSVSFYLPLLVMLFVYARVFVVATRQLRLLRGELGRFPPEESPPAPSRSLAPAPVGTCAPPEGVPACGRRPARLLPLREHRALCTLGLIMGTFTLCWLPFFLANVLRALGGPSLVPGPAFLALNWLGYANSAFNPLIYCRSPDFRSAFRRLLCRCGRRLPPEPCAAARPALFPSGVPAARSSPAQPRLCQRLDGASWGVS
5-hydroxytryptamine receptor 2A, sequence (P28223 whole entry): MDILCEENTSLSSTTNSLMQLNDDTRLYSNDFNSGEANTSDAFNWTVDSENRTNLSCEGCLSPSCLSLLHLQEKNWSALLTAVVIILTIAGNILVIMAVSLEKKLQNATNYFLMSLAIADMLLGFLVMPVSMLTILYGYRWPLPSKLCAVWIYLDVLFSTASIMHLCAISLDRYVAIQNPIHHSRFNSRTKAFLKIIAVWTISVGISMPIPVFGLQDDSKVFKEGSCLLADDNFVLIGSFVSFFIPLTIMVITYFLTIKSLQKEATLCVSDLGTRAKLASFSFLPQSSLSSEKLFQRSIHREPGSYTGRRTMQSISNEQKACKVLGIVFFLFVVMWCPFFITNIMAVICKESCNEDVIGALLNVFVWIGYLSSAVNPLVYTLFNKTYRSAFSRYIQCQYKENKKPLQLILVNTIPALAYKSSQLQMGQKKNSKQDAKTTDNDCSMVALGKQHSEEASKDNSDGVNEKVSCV
Sigma intracellular receptor 2, sequence (Q5BJF2 whole entry): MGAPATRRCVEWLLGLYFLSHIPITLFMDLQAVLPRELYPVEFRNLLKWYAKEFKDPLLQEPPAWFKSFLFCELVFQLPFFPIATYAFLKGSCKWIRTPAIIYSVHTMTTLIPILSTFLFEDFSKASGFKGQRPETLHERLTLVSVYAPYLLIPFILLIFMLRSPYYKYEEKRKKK
D(3) dopamine receptor, sequence (P35462 whole entry): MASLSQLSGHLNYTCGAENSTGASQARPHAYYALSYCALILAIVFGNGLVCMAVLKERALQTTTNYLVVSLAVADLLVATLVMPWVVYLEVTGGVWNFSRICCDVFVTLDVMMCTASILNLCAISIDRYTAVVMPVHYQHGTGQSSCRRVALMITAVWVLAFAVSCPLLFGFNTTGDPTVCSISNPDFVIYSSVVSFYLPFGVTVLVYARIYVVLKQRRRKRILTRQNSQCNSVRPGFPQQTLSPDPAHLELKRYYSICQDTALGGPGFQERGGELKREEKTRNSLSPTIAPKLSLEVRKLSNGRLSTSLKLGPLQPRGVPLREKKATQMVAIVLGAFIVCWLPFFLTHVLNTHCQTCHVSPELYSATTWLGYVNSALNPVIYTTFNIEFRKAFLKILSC
P2Y purinoceptor 6 (Mus musculus), sequence (Q9ERK9 whole entry): as the sequence (Q9ERK9 whole entry) above
Histamine H1 receptor, sequence (P35367 whole entry): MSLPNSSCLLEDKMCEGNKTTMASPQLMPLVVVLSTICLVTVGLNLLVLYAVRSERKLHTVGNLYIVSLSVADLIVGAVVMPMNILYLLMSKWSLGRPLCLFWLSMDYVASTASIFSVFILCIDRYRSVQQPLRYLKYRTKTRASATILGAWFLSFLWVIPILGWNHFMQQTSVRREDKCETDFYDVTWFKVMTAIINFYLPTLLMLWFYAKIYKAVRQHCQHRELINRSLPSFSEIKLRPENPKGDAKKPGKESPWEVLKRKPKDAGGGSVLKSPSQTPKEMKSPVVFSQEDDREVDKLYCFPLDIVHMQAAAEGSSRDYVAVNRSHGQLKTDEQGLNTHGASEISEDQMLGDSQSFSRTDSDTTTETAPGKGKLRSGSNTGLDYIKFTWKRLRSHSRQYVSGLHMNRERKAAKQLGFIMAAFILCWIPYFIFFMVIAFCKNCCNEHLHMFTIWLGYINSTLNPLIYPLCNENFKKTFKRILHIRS

O=[N+]([O-])C1=Cc2cccc(I)c2OC1C(F)(F)F (racemic)
pIC50 (P2Y purinoceptor 6 [1]): 4.75

CC[Si](C#Cc1ccc2c(c1)C=C([N+](=O)[O-])C(C(F)(F)F)O2)(CC)CC (racemic)
Activity (HEK293): 73% | Activity [2]: < 30% | Activity [3]: < 30% | Activity [4]: < 30% | pIC50 (P2Y purinoceptor 6 [1]): 5.31

O=C(O)c1ccc(C#Cc2ccc3c(c2)C=C([N+](=O)[O-])C(C(F)(F)F)O3)cc1 (racemic)
Activity [5]: 14% | Activity (HEK293): 95% | Activity [2]: < 30% | Activity [3]: < 30% | Activity [4]: < 30%

C[Si](C)(C)C#Cc1ccc2c(c1)C=C([N+](=O)[O-])C(C(F)(F)F)O2 (racemic)
Activity (HEK293): 58% | Activity [2]: < 30% | Activity [3]: < 30% | Activity [4]: < 30%

O=[N+]([O-])C1=Cc2cc(I)ccc2OC1C1CCC1 (racemic)
pIC50 (P2Y purinoceptor 6 [6]): 4.48

FC(F)(F)C1Oc2ccc(Cl)cc2-c2n[nH]nc21 (racemic)
Activity (P2Y purinoceptor 6 [7]; filed as antagonist): 43%

O=[N+]([O-])C1=Cc2cc(F)ccc2OC1C(F)(F)F (racemic)
pKi [8]: 5.07

CC[Si](C#Cc1ccc2c(c1)C=C([N+](=O)[O-])C(C1CC1)O2)(CC)CC (racemic)
Activity (P2Y purinoceptor 6 [7]; filed as antagonist): 50%

O=[N+]([O-])C1=Cc2cccc(Cl)c2OC1C(F)(F)F (racemic)
pIC50 (P2Y purinoceptor 6 [6]): 5.43 | pIC50 (P2Y purinoceptor 6 [1]): 4.82

O=[N+]([O-])C1=Cc2cc(Cl)ccc2OC1C(F)(F)F (racemic)
pKi (D(3) dopamine receptor): 6.11 | pIC50 (P2Y purinoceptor 6 [1]): 4.51 | pKi (D(1B) dopamine receptor): 5.55

CC1Oc2ccc(I)cc2C=C1[N+](=O)[O-] (racemic)
pIC50 (P2Y purinoceptor 6 [6]): 4.43

O=[N+]([O-])C1=Cc2c(Cl)cccc2OC1C(F)(F)F (racemic)
pIC50 (P2Y purinoceptor 6 [6]): 4.80

O=[N+]([O-])C1=Cc2cc(C#Cc3ccc(F)cc3)ccc2OC1C(F)(F)F (racemic)
pIC50 (P2Y purinoceptor 6 [6]): 5.05

NC1Cc2ccccc2OC1C(F)(F)F (racemic)
Activity (P2Y purinoceptor 6 [7]): 0%

CC[Si](C#Cc1cccc2c1OC(C(F)(F)F)C([N+](=O)[O-])=C2)(CC)CC (racemic)
pKi [9]: 5.38 | pIC50 (P2Y purinoceptor 6 [6]): 6.34 | pKi [10]: 5.96 | Activity (HEK293): 83% | Activity [2]: 39.2% | Activity [3]: < 30% | Activity [4]: < 30% | pKi (Histamine H1 receptor): 5.46 | pKi [11]: 5.14 | pIC50 (P2Y purinoceptor 6 [1]): 5.21 | pKi [12]: 5.19

O=[N+]([O-])C1=Cc2cc(Br)ccc2OC1C(F)(F)F (racemic)
pIC50 (P2Y purinoceptor 6 [1]): 4.69

O=[N+]([O-])C1=Cc2cc(I)ccc2OC1C(F)(F)F (racemic)
pIC50 (P2Y purinoceptor 6 [1]): 4.54

O=[N+]([O-])C1=Cc2cc(F)cc(F)c2OC1C(F)(F)F (racemic)
pIC50 (P2Y purinoceptor 6 [6]): 5.52 | pIC50 (P2Y purinoceptor 6 [1]): 4.75

O=[N+]([O-])C1=Cc2ccccc2OC1C(F)(F)F (racemic)
pIC50 (P2Y purinoceptor 6 [1]): 3.73

O=[N+]([O-])C1=Cc2cc(C#Cc3ccc(CO)cc3)ccc2OC1C(F)(F)F (racemic)
pIC50 (P2Y purinoceptor 6 [1]): 4.50 | pKi (D(1B) dopamine receptor): 6.22

CC[Si](C#Cc1cccc2c1C=C([N+](=O)[O-])C(C(F)(F)F)O2)(CC)CC (racemic)
pIC50 (P2Y purinoceptor 6 [6]): 5.32

O=[N+]([O-])C1=Cc2cc(C#Cc3ccc(Cl)cc3)ccc2OC1C(F)(F)F (racemic)
pIC50 (P2Y purinoceptor 6 [6]): 5.27

O=[N+]([O-])C1=Cc2c(I)cccc2OC1C(F)(F)F (racemic)
pIC50 (P2Y purinoceptor 6 [6]): 4.88

O=[N+]([O-])C1=Cc2ccc(Cl)cc2OC1C(F)(F)F (racemic)
pIC50 (P2Y purinoceptor 6 [6]): 5.10

O=[N+]([O-])C1=Cc2cc(F)cc(Br)c2OC1C(F)(F)F (racemic)
pIC50 (P2Y purinoceptor 6 [1]): 4.84
